From patent US8039514B2, “Sulfonamide compounds and use thereof” (Asahi Kasei Pharma Corporation, priority 2008, dated 2011)

Biological target: T1, human calcium-sensing receptor (CaSR) (Homo sapiens, UniProt P41180)
T1 construct: expressed in transfected cells
T1 sequence (P41180 20-1078): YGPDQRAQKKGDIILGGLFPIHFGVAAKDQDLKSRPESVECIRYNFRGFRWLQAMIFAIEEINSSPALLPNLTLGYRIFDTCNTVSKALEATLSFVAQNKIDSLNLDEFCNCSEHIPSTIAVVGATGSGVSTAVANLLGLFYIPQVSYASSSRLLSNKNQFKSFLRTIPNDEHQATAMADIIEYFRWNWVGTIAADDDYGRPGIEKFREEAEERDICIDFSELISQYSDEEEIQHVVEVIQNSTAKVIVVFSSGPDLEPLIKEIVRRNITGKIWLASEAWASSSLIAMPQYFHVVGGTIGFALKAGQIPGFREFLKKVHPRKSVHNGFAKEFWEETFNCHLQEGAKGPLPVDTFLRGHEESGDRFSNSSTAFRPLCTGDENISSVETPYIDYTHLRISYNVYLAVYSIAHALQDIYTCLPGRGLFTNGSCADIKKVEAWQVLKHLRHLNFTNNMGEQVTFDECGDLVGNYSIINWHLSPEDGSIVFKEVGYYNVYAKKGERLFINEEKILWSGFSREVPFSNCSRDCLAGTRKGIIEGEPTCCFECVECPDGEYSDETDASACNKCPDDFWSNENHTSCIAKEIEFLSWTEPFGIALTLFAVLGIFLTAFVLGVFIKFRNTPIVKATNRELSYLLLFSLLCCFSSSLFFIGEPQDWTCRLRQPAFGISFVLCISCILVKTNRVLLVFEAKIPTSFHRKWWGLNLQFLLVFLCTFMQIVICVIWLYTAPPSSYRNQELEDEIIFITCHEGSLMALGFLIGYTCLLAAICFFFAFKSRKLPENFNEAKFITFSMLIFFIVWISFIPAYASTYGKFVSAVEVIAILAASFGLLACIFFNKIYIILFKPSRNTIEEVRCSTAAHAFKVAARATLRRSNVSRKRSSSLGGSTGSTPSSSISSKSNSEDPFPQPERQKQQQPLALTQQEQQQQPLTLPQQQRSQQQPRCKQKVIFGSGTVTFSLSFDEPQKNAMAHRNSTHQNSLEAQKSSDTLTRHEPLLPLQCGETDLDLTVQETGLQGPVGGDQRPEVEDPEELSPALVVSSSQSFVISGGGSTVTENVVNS
Experiment: intracellular Ca assay, CaSR antagonist activity in HEK293/hCaSR cells
Type: cell-based
Conditions: Fura2-AM, inhibition of response to calcium chloride ligand solution, read-out: IC50 values according to the intracellular Ca assay (CaSR antagonist activity)
Outline: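 HEK293/hCaSR cells were loaded with Fura2-AM and pre-incubated with compound for 160 s at 37° C in HEPES buffer (pH 7.4, 0.8 mM CaCl2), then challenged with calcium ligand solution. Read-out was the peak 340/380 nm fluorescence ratio; inhibition is relative to no-compound (0%) and no-calcium-ligand (100%) controls.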

SMILES | IC50 [nM]
CN(C[C@H](O)CNC(C)(C)Cc1ccc2ccccc2c1)S(=O)(=O)c1cccc(-c2ccc(C(=O)O)s2)c1 [Exp. 3-26, (R)-5-(3-(N-(2-hydroxy-3-(2-methyl-1-(naphthalen-2-yl)propan-2-ylamino)propyl)-N-methylsulfamoyl)phenyl)thiophen-2-carboxylic acid] | 300 to 1000
CN(C[C@H](O)CNC(C)(C)Cc1ccc2ccccc2c1)S(=O)(=O)c1cccc(-c2cc(N)cc(C(=O)O)c2)c1 [Exp. 3-17, (R)-5-amino-3′-(N-(2-hydroxy-3-(2-methyl-1-(naphthalen-2-yl)propan-2-ylamino)propyl)-N-methylsulfamoyl)biphenyl-3-carboxylic acid] | 300 to 1000
CN(C[C@H](O)CNC(C)(C)Cc1ccc2ccccc2c1)S(=O)(=O)c1ccc(-c2ccc(C(=O)O)c(O)c2)cc1 [Exp. 3-46, (R)-3-hydroxy-4′-(N-(2-hydroxy-3-(2-methyl-1-(naphthalen-2-yl)propan-2-ylamino)propyl)-N-methylsulfamoyl)biphenyl-4-carboxylic acid] | 300 to 1000
Cc1cc(C(=O)O)ccc1-c1cccc(S(=O)(=O)N(C)C[C@H](O)CNC(C)(C)CC2Cc3ccccc3C2)c1 [Exp. 3-220, (R)-3′-(N-(3-(1-(2,3-dihydro-1H-inden-2-yl)-2-methylpropan-2-ylamino)-2-hydroxypropyl)-N-methylsulfamoyl)-2-methylbiphenyl-4-carboxylic acid] | ≤ 300
CN(C[C@H](O)CNC(C)(C)Cc1ccc2ccccc2c1)S(=O)(=O)c1cccc(-c2ccc(C(=O)O)cc2N)c1 [Exp. 3-19, (R)-2-amino-3′-(N-(2-hydroxy-3-(2-methyl-1-(naphthalen-2-yl)propan-2-ylamino)propyl)-N-methylsulfamoyl)biphenyl-4-carboxylic acid] | 300 to 1000
Cc1ccc(CC(C)(C)NC[C@@H](O)CN(C)S(=O)(=O)c2cccc(-c3ccc(C(=O)O)cc3F)c2)cc1F [Exp. 3-67, (R)-2-fluoro-3′-(N-(3-(1-(3-fluoro-4-methylphenyl)-2-methylpropan-2-ylamino)-2-hydroxypropyl)-N-methylsulfamoyl)biphenyl-4-carboxylic acid] | 300 to 1000
CN(C[C@H](O)CNC(C)(C)CC1Cc2ccccc2C1)S(=O)(=O)c1cc(-c2cccc(CC(=O)O)c2)cc(C(F)(F)F)c1 [Exp. 3-154, (R)-2-(3′-(N-(3-(1-(2,3-dihydro-1H-inden-2-yl)-2-methylpropan-2-ylamino)-2-hydroxypropyl)-N-methylsulfamoyl)-5′-(trifluoromethyl)biphenyl-3-yl)acetic acid] | ≤ 300
CN(C[C@H](O)CNC(C)(C)Cc1ccc2ccccc2c1)S(=O)(=O)c1ccc(-c2ccc(C(=O)O)c(N)c2)cc1 [Exp. 3-34, (R)-3-amino-4′-(N-(2-hydroxy-3-(2-methyl-1-(naphthalen-2-yl)propan-2-ylamino)propyl)-N-methylsulfamoyl)biphenyl-4-carboxylic acid] | 1000 to 3000
CN(C[C@H](O)CNC(C)(C)Cc1ccc2ccccc2c1)S(=O)(=O)c1cccc(-c2ccc(C=CC(=O)O)cc2)c1 [Exp. 3-14, (R)-3-(3′-(N-(2-hydroxy-3-(2-methyl-1-(naphthalen-2-yl)propan-2-ylamino)propyl)-N-methylsulfamoyl)biphenyl-4-yl)acrylic acid] | 300 to 1000
CCc1cc(-c2ccc(CCCC(=O)O)cc2)ccc1S(=O)(=O)N(C)C[C@H](O)CNC(C)(C)CCCc1ccccc1 [Exp. 5-77, (R)-4-(3′-ethyl-4′-(N-(2-hydroxy-3-(2-methyl-5-phenylpentan-2-ylamino)propyl)-N-methylsulfamoyl)biphenyl-4-yl)butanoic acid] | ≤ 300
CN(C[C@H](O)CNC(C)(C)CC1Cc2ccccc2C1)S(=O)(=O)c1cccc(-c2ccc(C(=O)O)cc2F)c1 [Exp. 3-55, (R)-3′-(N-(3-(1-(2,3-dihydro-1H-inden-2-yl)-2-methylpropan-2-ylamino)-2-hydroxypropyl)-N-methylsulfamoyl)-2-fluorobiphenyl-4-carboxylic acid] | ≤ 300
Cc1ccc(CC(C)(C)NC[C@@H](O)CN(C)S(=O)(=O)c2cccc(-c3cccc(C(=O)O)c3)c2)cc1F [Exp. 3-63, (R)-3′-(N-(3-(1-(3-fluoro-4-methylphenyl)-2-methylpropan-2-ylamino)-2-hydroxypropyl)-N-methylsulfamoyl)biphenyl-3-carboxylic acid] | 1000 to 3000
CN(C[C@H](O)CNC(C)(C)CC1Cc2ccccc2C1)S(=O)(=O)c1cc(-c2ccc(CCC(=O)O)s2)cc(C(F)(F)F)c1 [Exp. 8-1, (R)-3-(5-(3-(N-(3-(1-(2,3-dihydro-1H-inden-2-yl)-2-methylpropan-2-ylamino)-2-hydroxypropyl)-N-methylsulfamoyl)-5-(trifluoromethyl)phenyl)thiophen-2-yl)propionic acid] | ≤ 300
COCc1cc(-c2cccc(S(=O)(=O)N(C)C[C@H](O)CNC(C)(C)Cc3ccc4ccccc4c3)c2)ccc1C(=O)O [Exp. 3-22, (R)-3′-(N-(2-hydroxy-3-(2-methyl-1-(naphthalen-2-yl)propan-2-ylamino)propyl)-N-methylsulfamoyl)-3-(methoxymethyl)biphenyl-4-carboxylic acid] | 300 to 1000
CCc1cc(-c2ccc(OC)c(CCC(=O)O)c2)ccc1S(=O)(=O)N(C)C[C@H](O)CNC(C)(C)CCCc1ccccc1 [Exp. 5-30, (R)-3-(3′-ethyl-4′-(N-(2-hydroxy-3-(2-methyl-5-phenylpentan-2-ylamino)propyl)-N-methylsulfamoyl)-4-methoxybiphenyl-3-yl)propionic acid] | ≤ 300
CN(C[C@H](O)CNC(C)(C)Cc1ccc2ccccc2c1)S(=O)(=O)c1ccccc1-c1cccc(C=CC(=O)O)c1 [Exp. 3-1, (R)-3-(2′-(N-(2-hydroxy-3-(2-methyl-1-(naphthalen-2-yl)propan-2-ylamino)propyl)-N-methylsulfamoyl)biphenyl-3-yl)acrylic acid] | 300 to 1000
CN(C[C@H](O)CNC(C)(C)Cc1ccc2ccccc2c1)S(=O)(=O)c1ccc(-c2ccc(NC(=O)CCC(=O)O)cc2)cc1 [Exp. 3-43, (R)-4-(4′-(N-(2-hydroxy-3-(2-methyl-1-(naphthalen-2-yl)propan-2-ylamino)propyl)-N-methylsulfamoyl)biphenyl-4-ylamino)-4-oxobutanoic acid] | 1000 to 3000
Cc1ccc(-c2cccc(S(=O)(=O)N(C)C[C@H](O)CNC(C)(C)CC3Cc4ccccc4C3)c2)cc1C(=O)O [Exp. 3-51, (R)-3′-(N-(3-(1-(2,3-dihydro-1H-inden-2-yl)-2-methylpropan-2-ylamino)-2-hydroxypropyl)-N-methylsulfamoyl)-4-methylbiphenyl-3-carboxylic acid] | 300 to 1000
Cc1cc(-c2ccccc2CS(=O)(=O)N(C)C[C@H](O)CNC(C)(C)Cc2ccc3ccccc3c2)ccc1C(=O)O [Exp. 3-81, (R)-2′-((N-(2-hydroxy-3-(2-methyl-1-(naphthalen-2-yl)propan-2-ylamino)propyl)-N-methylsulfamoyl)methyl)-3-methylbiphenyl-4-carboxylic acid] | 300 to 1000
CN(C[C@H](O)CNC(C)(C)Cc1ccc2ccccc2c1)S(=O)(=O)c1cccc(-c2cccc(C=CC(=O)O)c2)c1 [Exp. 3-16, (R)-3-(3′-(N-(2-hydroxy-3-(2-methyl-1-(naphthalen-2-yl)propan-2-ylamino)propyl)-N-methylsulfamoyl)biphenyl-3-yl)acrylic acid] | 1000 to 3000
CN(C[C@H](O)CNC(C)(C)CC1Cc2ccccc2C1)S(=O)(=O)c1cccc(-c2cccc(C=CC(=O)O)c2)c1 [Exp. 3-58, (R)-3-(3′-(N-(3-(1-(2,3-dihydro-1H-inden-2-yl)-2-methylpropan-2-ylamino)-2-hydroxypropyl)-N-methylsulfamoyl)biphenyl-3-yl)acrylic acid] | ≤ 300
CN(C[C@H](O)CNC(C)(C)CC1Cc2ccccc2C1)S(=O)(=O)c1cc(-c2cc(F)cc(C(=O)O)c2)cc(C(F)(F)F)c1 [Exp. 3-128, (R)-3′-(N-(3-(1-(2,3-dihydro-1H-inden-2-yl)-2-methylpropan-2-ylamino)-2-hydroxypropyl)-N-methylsulfamoyl)-5-fluoro-5′-(trifluoromethyl)biphenyl-3-carboxylic acid] | ≤ 300
